Literature values, collected in US20080038350A1, “LOW-DOSAGE PERORAL MEDICATION FOR CONTRACEPTION CONTAINING CRYSTALLINE DIENOGEST AND ETHINYL ESTRADIOL” (priority 2006, published 2008).

Key:
[1] = single dosage
ovulation inhibition = details: micronized, average particle size of about 3 μm

plasma level, average particle size 3.7 μm versus powder of 22 μm [1]	SMILES	optimum dosage for reliable ovulation inhibition (ovulation inhibition) [mg]
nearly twice as high	C[C@H]1O[C@@H](O[C@H]2[C@@H](O)C[C@H](O[C@H]3[C@@H](O)C[C@H](O[C@H]4CC[C@@]5(C)[C@H](CC[C@@H]6[C@@H]5C[C@@H](O)[C@]5(C)[C@@H](C7=CC(=O)OC7)CC[C@]65O)C4)O[C@@H]3C)O[C@@H]2C)C[C@H](O)[C@@H]1O [digoxin]	–
–	C[C@]12CCC3=C4CCC(=O)C=C4CC[C@H]3[C@@H]1CC[C@@]2(O)CC#N [dienogest, 17α-cyanomethyl-17β-hydroxyestra-4,9-dien-3-one]	2
